Laboratory results from US8536187B2 (Gilead Sciences, Inc., priority 2008, dated 2013).

Key:
[1] = tested on: HCV replicon in human hepatoma Huh-7 cell line; test: Anti-HCV replicon assay, EC50 (luciferase luminescence); type: cell-based; conditions: Hepatitis C virus, Huh-7, 72 h
Method in brief: (§1)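 Cytotoxicity (CC50) read by CellTiter-Glo luminescence after 10 min, and antiviral EC50 by luciferase signal after 30 min lysis with substrate, both at room temperature. Preceding step: 3-day exposure of 6000 Huh-7 HCV replicon cells per well to compound dilution series at 37° C, 5% CO2, in 0.5% DMSO.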

[2] = CC50 assay (CellTiter-Glo) in Huh-7 HCV replicon cells; type: cell-based; conditions: human, Table 2, 3 days incubation
Method in brief: as §1

Structure (SMILES)	EC50 [1]	CC50 at 3 days [2]
COc1ccc(-c2ccc3nc(NCc4ccc(S(N)(=O)=O)cc4)nc(NCC(F)(F)F)c3n2)cc1S(=O)(=O)C(F)(F)F [Example 165, 4-((6-(4-methoxy-3-(trifluoromethylsulfonyl)phenyl)-4-(2,2,2-trifluoroethylamino)pyrido[3,2-d]pyrimidin-2-ylamino)methyl)benzene-sulfonamide]	< 100 nM	1000 to 10000 nM
COc1ccc(-c2ccc3nc(NCc4cccnc4)nc(NCC(F)(F)F)c3n2)cc1S(C)(=O)=O [Example 166, 6-(4-methoxy-3-(methylsulfonyl)phenyl)-N^2-(pyridin-3-ylmethyl)-N^4-(2,2,2-trifluoroethyl)pyrido [3,2-d]pyrimidine-2,4-diamine]	< 100 nM	1000 to 10000 nM
CS(=O)(=O)c1cccc(-c2ccc3nc(NCc4ccc(-n5cccn5)cc4)nc(NCC(F)(F)F)c3n2)c1 [Example 167, N^2-(4-(1H-pyrazol-1-yl)benzyl)-6-(3-(methylsulfonyl)phenyl)-N^4-(2,2,2-trifluoroethyl)pyrido [3,2-d]pyrimidine-2,4-diamine]	< 100 nM	> 10000 nM
C[C@H](Cn1cncn1)Nc1nc(NCC(F)(F)F)c2nc(-c3cccc(S(C)(=O)=O)c3)ccc2n1 [Example 168, N^2-((R)-1-(1H-1,2,4-triazol-1-yl)propan-2-yl)-6-(3-(methylsulfonyl)phenyl)-N^4-(2,2,2-trifluoroethyl)pyrido [3,2-d]pyrimidine-2,4-diamine]	100 to 250 nM	> 10000 nM
C[C@@H](Cn1cncn1)Nc1nc(NCC(F)(F)F)c2nc(-c3cccc(S(C)(=O)=O)c3)ccc2n1 [Example 169, N^2-((S)-1-(1H-1,2,4-triazol-1-yl)propan-2-yl)-6-(3-(methylsulfonyl)phenyl)-N^4-(2,2,2-trifluoroethyl)pyrido [3,2-d]pyrimidine-2,4-diamine]	250 to 2000 nM	> 10000 nM
C[C@@H](Nc1nc(NCC(F)(F)F)c2nc(-c3cccc(S(C)(=O)=O)c3)ccc2n1)c1ccc(-n2cncn2)cc1 [Example 170, N^2-((R)-1-(4-(1H-1,2,4-triazol 1-yl)phenyl)ethyl)-6-(3-(methylsulfonyl)phenyl)-N^4-(2,2,2-trifluoroethyl)pyrido [3,2-d]pyrimidine-2,4-diamine]	< 100 nM	1000 to 10000 nM
COc1ccc(-c2ccc3nc(NCCS(N)(=O)=O)nc(NCC(F)(F)F)c3n2)cc1S(C)(=O)=O [Example 172, 2-(6-(4-methoxy-3-(methylsulfonyl)phenyl)-4-(2,2,2-trifluoroethylamino)pyrido[3,2-d]pyrimidin-2-ylamino)ethanesulfonamide]	100 to 250 nM	> 10000 nM
Cc1ccc(-c2ccc3nc(NCc4cccc(S(C)(=O)=O)c4)nc(NCC(F)(F)F)c3n2)cc1S(C)(=O)=O [Example 173, N^2-(3-(methylsulfonyl)benzyl)-6-(4-methyl-3-(methylsulfonyl)phenyl)-N^4-(2,2,2-trifluoroethyl) pyrido[3,2-d]pyrimidine-2,4-diamine]	< 100 nM	1000 to 10000 nM
CS(=O)(=O)c1cccc(CNc2nc(NCC(F)(F)F)c3nc(-c4ccc(OC(F)F)c(S(C)(=O)=O)c4)ccc3n2)c1 [Example 174, N^2-(3-(methylsulfonyl)benzyl)-6-(4-(difluoromethoxy)-3-(methylsulfonyl)phenyl)-N^4-(2,2,2-trifluoroethyl)pyrido [3,2-d]pyrimidine-2,4-diamine]	< 100 nM	< 1000 nM
CS(=O)(=O)c1cc(-c2ccc3nc(NCc4ccc(-n5cncn5)cc4)nc(NCC(F)(F)F)c3n2)ccc1OC(F)F [Example 175, N^2-(4-(1H-1,2,4-triazol-1-yl)benzyl)-6-(4-(difluoro-methoxy)-3-(methylsulfonyl)phenyl)-N^4-(2,2,2-trifluoroethyl) pyrido[3,2-d]pyrimidine-2,4-diamine]	< 100 nM	> 10000 nM
COc1ccc(-c2ccc3nc(NCc4ccc(C)c(F)c4)nc(NCC(F)(F)F)c3n2)cc1S(C)(=O)=O [Example 176, N^2-(3-fluoro-4-methylbenzyl)-6-(4-methoxy-3-(methylsulfonyl)phenyl)-N^4-(2,2,2-trifluoroethyl) pyrido[3,2-d]pyrimidine-2,4-diamine]	< 100 nM	1000 to 10000 nM
COc1ccc(-c2ccc3nc(NCc4cccc(S(C)(=O)=O)c4)nc(NCC(F)(F)F)c3n2)cc1S(C)(=O)=O [Example 177, N^2-(3-(methylsulfonyl)benzyl)-6-(4-methoxy-3-(methylsulfonyl)phenyl)-N^4-(2,2,2-trifluoroethyl) pyrido[3,2-d]pyrimidine-2,4-diamine]	< 100 nM	1000 to 10000 nM
CS(=O)(=O)c1cc(-c2ccc3nc(NCc4cccnc4)nc(NCC(F)(F)F)c3n2)ccc1OC(F)F [Example 178, 6-(4-(difluoromethoxy)-3-(methylsulfonyl)phenyl)-N^2-(pyridin-3-ylmethyl)-N^4-(2,2,2-trifluoroethyl)pyrido [3,2-d]pyrimidine-2,4-diamine]	< 100 nM	1000 to 10000 nM
Cc1ccc(-c2ccc3nc(NCc4ccc(-n5cncn5)cc4)nc(NCC(F)(F)F)c3n2)cc1S(C)(=O)=O [Example 179, N^2-(4-(1H-1,2,4-triazol-1-yl)benzyl)-6-(4-methyl-3-(methylsulfonyl)phenyl)-N^4-(2,2,2-trifluoroethyl)pyrido [3,2-d]pyrimidine-2,4-diamine]	< 100 nM	> 10000 nM
COc1ccc(-c2ccc3nc(NC(C)c4cc(F)cc(F)c4)nc(NCC(F)(F)F)c3n2)cc1S(C)(=O)=O (stereo not shown) [Example 180, N^2-(1-(3,5-difluorophenyl)ethyl)-6-(4-methoxy-3-(methylsulfonyl)phenyl)-N^4-(2,2,2-trifluoroethyl)pyrido [3,2-d]pyrimidine-2,4-diamine]	100 to 250 nM	1000 to 10000 nM
CCS(=O)(=O)c1cccc(-c2ccc3nc(NCc4ccc(-n5cncn5)cc4)nc(NCC(F)(F)F)c3n2)c1 [Example 181, N^2-(4-(1H-1,2,4-triazol-1-yl)benzyl)-6-(3-(ethylsulfonyl)phenyl)-N^4-(2,2,2-trifluoroethyl)pyrido [3,2-d]pyrimidine-2,4-diamine]	< 100 nM	> 10000 nM
CCS(=O)(=O)c1cccc(-c2ccc3nc(N[C@H](C)c4ccc(-n5cncn5)cc4)nc(NCC(F)(F)F)c3n2)c1 [Example 182, N^2-((R)-1-(4-(1H-1,2,4-triazol-1-yl)phenyl)ethyl)-6-(3-(ethylsulfonyl)phenyl)-N^4-(2,2,2-trifluoroethyl)pyrido [3,2-d]pyrimidine-2,4-diamine]	< 100 nM	1000 to 10000 nM
CCOc1ccc(-c2ccc3nc(NCc4ccc(-n5cncn5)cc4)nc(NCC(F)(F)F)c3n2)cc1S(C)(=O)=O [Example 183, N^2-(4-(1H-1,2,4-triazol-1-yl)benzyl)-6-(4-ethoxy-3-(methylsulfonyl)phenyl)-N^4-(2,2,2-trifluoroethyl)pyrido [3,2-d]pyrimidine-2,4-diamine]	< 100 nM	1000 to 10000 nM
CS(=O)(=O)c1cccc(-c2ccc3nc(NCc4ccc(-n5cncn5)nc4)nc(NCC(F)(F)F)c3n2)c1 [Example 184, N^2-((6-(1H-1,2,4-triazol-1-yl)pyridin-3-yl)methyl)-6-(3-(methylsulfonyl)phenyl)-N^4-(2,2,2-trifluoroethyl)pyrido [3,2-d]pyrimidine-2,4-diamine]	< 100 nM	1000 to 10000 nM
C[C@@H](Nc1nc(OC2CC2)c2nc(-c3ccc(OC(F)F)c(S(C)(=O)=O)c3)ccc2n1)c1ccc(S(N)(=O)=O)cc1 [Example 185, 4-((R)-1-(4-cyclopropoxy-6-(4-(difluoromethoxy)-3-(methylsulfonyl)phenyl)pyrido [3,2-d]pyrimidin-2-ylamino)ethyl)benzenesulfonamide]	100 to 250 nM	> 10000 nM
C[C@H](Nc1nc(NCc2ccc(-n3cncn3)cc2)nc2ccc(-c3cccc(S(C)(=O)=O)c3)nc12)C(F)(F)F [Example 187, N^2-(4-(1H-1,2,4-triazol-1-yl)benzyl)-6-(3-(methylsulfonyl)phenyl)-N^4-((S)-1,1,1-trifluoropropan-2-yl)pyrido [3,2-d]pyrimidine-2,4-diamine]	< 100 nM	> 10000 nM
CS(=O)(=O)c1cccc(-c2ccc3nc(NCc4ccc(-n5cncn5)cc4)nc(OC4CC4)c3n2)c1 [Example 188, N-(4-(1H-1,2,4-triazol-1-yl)benzyl)-4-cyclopropoxy-6-(3-(methylsulfonyl)phenyl) pyrido[3,2-d]pyrimidin-2-amine]	< 100 nM	> 10000 nM
CC1(Oc2nc(NCc3ccc(-n4cncn4)cc3)nc3ccc(-c4cccc(S(C)(=O)=O)c4)nc23)CC1 [Example 189, N-(4-(1H-1,2,4-triazol-1-yl)benzyl)-4-(1-methylcyclo-propoxy)-6-(3-(methylsulfonyl)phenyl)pyrido[3,2-d]pyrimidin-2-amine]	< 100 nM	1000 to 10000 nM
CCOc1nc(NCc2ccc(-n3cncn3)cc2)nc2ccc(-c3cccc(S(C)(=O)=O)c3)nc12 [Example 190, N-(4-(1H-1,2,4-triazol-1-yl)benzyl)-4-ethoxy-6-(3-(methylsulfonyl)phenyl)pyrido [3,2-d]pyrimidin-2-amine]	< 100 nM	> 10000 nM
CC1(Oc2nc(NCc3ccc(-n4cncn4)cc3)nc3ccc(-c4ccc(OC(F)F)c(S(C)(=O)=O)c4)nc23)CC1 [Example 191, N-(4-(1H-1,2,4-triazol-1-yl)benzyl)-6-(4-(difluoro-methoxy)-3-(methylsulfonyl)phenyl)-4-(1-methylcyclo-propoxy)pyrido[3,2-d] pyrimidin-2-amine]	< 100 nM	> 10000 nM
CS(=O)(=O)c1cc(-c2ccc3nc(NCc4ccc(-n5cncn5)cc4)nc(OC4CC4)c3n2)ccc1OC(F)F [Example 192, N-(4-(1H-1,2,4-triazol-1-yl)benzyl)-4-cyclopropoxy-6-(4-(difluoromethoxy)-3-(methylsulfonyl)phenyl)pyrido [3,2-d]pyrimidin-2-amine]	< 100 nM	1000 to 10000 nM
